Experimental data reported in US20110065629A1, “ENTERAL NUTRIENT” (AMINO UP CHEMICAL CO., LTD., priority 2008, published 2011).

System: Dendritic cells separated from the bone marrow and spleen
Assay: External appearance of dendritic cells in plastic dishes with or without LPS
Format: cell-based, normal mice
Details: AHCC 5 mg/ml, β-glucan 1 mg/ml
Experimental: Dendritic cells separated from the bone marrow and spleen of normal mice were placed in plastic dishes to measure the external appearances of dendritic cells in the case of adding only LPS so as to achieve a final concentration of 5 μg/ml and in the case of adding LPS and AHCC (final concentration: 5 mg/ml) or β-glucan (final concentration: 1 mg/ml).

For β-glucan, the Cell morphology (LPS stimulation (5 μg/ml)) was “Deformation” and the Cell morphology (Normal condition) was “Spherical”.
